Reference: patent US20250235508A1, “MODIFIED THERAPEUTIC AGENTS AND COMPOSITIONS THEREOF” (THE SCRIPPS RESEARCH INSTITUTE, priority 2015, published 2025)
Starred links: 1 amine or outer side, 2 acyl side, 3 side chain; linkers in the order of their positions; H or OH if unused. Positions of bridges follow the written chain, without caps; N, C: chain ends. Non-standard residues stand in square brackets, D forms with d. Residues, ends and D or L forms follow the SMILES beside them. Glutaryl = O=C(CCCC(=O)[*:2])[*:1]

Tests used:
[1] = biological target: T1, human glucagon-like peptide 1 receptor (GLP-1R) (Homo sapiens, UniProt P43220); test: GLP-1R receptor-mediated CRE Luc reporter assay (receptor-mediated cAMP synthesis); type: cell-based; settings: HEK293-GLP-1R-CRE cells, luciferase reporter
T1 construct: expressed in transfected cells; host or cells: HEK293 (CRE-HEK293)
Protocol: HEK293 cells were infected with lent virus encoding firefly luciferase gene under the control of CRE promoter, as described in the manual (Qiagen, Netherlands) and then were selected using 1 μg/mL puromycin (Life technologies, Carlsbad) for 1 week. The survived cells were named as CRE-HEK293, expanded and then transfected with a G418 selective mammalian expression plasmid encoding human GCGR, GLP-1R, GIPR or GLP-2R. […] Single colony stable cell lines overexpressing both CRE-luciferase and GCGR, GLP-1R, GIPR, or GLP-2R were then established for in vitro activity assays. These four stable cell lines were named as HEK293-GCGR-CRE, HEK293-GLP-1R-CRE, HEK293-GIPR-CRE, and HEK293-GLP-2R-CRE. […] Cells were treated with different peptides in a dose dependent manner.

[2] = biological target: T2, human glucagon receptor (GCGR) (Homo sapiens, UniProt P47871); test: GCGR receptor-mediated CRE Luc reporter assay (receptor-mediated cAMP synthesis); type: cell-based; settings: HEK293-GCGR-CRE cells, luciferase reporter
T2 construct: expressed in transfected cells; host or cells: HEK293 (CRE-HEK293)
Protocol: (§1) CREB responsive luciferase stable HEK 293 cell line overexpressing human glucagon receptor (GCGR), glucagon-like peptide 1 receptor (GLP-1R), glucose-dependent insulinotropic polypeptide receptor (GIPR), glucagon-like peptide 2 receptor (GLP-2R) was generated as follows. HEK293 cells were infected with lent virus encoding firefly luciferase gene under the control of CRE promoter, as described in the manual (Qiagen, Netherlands) and then were selected using 1 μg/mL puromycin (Life technologies, Carlsbad) for 1 week. The survived cells were named as CRE-HEK293, expanded and then transfected with a G418 selective mammalian expression plasmid encoding human GCGR, GLP-1R, GIPR or GLP-2R. In brief, GCGR, GLP-1R, GIPR, or GLP-2R plasmid was transfected into CRE-HEK293 cells using Lipofectamine 2000 and selected with 400 μg/mL geneticin (Life technologies, Carlsbad, CA). Single colony stable cell lines overexpressing both CRE-luciferase and GCGR, GLP-1R, GIPR, or GLP-2R were then established for in vitro activity assays. […] On the next day, 10 μl of Bright-Glo reagent (Promega, Madison, WI) were added into each well and firefly luminescence was determined using an Envision multilabel plate reader (PerkinElmer, Waltham, MA). EC50 of each peptide was calculated using GraphPad Prism 6 software (GraphPad, San Diego, CA). […]

[3] = biological target: T3, human glucagon-like peptide 2 receptor (GLP-2R) (Homo sapiens, UniProt O95838); test: GLP-2R receptor-mediated CRE Luc reporter assay (receptor-mediated cAMP synthesis); type: cell-based; settings: HEK293-GLP-2R-CRE cells, luciferase reporter
T3 construct: expressed in transfected cells; host or cells: HEK293 (CRE-HEK293)
T3 sequence (O95838 1-553): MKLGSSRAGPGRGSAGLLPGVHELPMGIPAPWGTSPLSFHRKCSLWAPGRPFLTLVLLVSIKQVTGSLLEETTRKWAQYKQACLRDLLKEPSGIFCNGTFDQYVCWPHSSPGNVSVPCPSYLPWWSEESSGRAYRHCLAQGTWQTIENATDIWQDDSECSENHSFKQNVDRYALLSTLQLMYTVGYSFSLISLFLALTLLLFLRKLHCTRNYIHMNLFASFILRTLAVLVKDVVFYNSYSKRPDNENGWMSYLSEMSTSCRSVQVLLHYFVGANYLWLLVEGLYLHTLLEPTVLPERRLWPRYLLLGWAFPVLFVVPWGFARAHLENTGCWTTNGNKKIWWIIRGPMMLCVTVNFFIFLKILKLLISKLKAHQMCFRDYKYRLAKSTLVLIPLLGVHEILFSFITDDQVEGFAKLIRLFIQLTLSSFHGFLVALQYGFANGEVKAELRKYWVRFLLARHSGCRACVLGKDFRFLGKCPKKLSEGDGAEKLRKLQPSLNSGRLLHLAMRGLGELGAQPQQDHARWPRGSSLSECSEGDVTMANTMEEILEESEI
Protocol: as §1

[4] = In vivo pharmacokinetic (PK) study in CD-1 mice; settings: female, CD-1, mouse, plasma, 0.3 mg/kg
Protocol: (§2) Female CD-1 mice obtained from Charles River Limited were used after overnight food deprivation for in vivo PK study. Peptides were dissolved in pH adjusted Phosphate buffered saline (PBS). 100 μL of each peptide (0.3 mg/kg) was administrated into each mouse through either i.v. or s.c route. Food was provided to mice immediately after bleeding at 30 minute. Blood were extracted into heparinized tubes and centrifuged at 3,000×g for 15 min. The resulting supernatant plasma were then stored at −80° C. for activity assays. The concentrations of peptides in plasma at each time point were determined by activity assay described above and in vivo half-life of each peptide was calculated by using Winnonlin Phoenix software (Pharsight Corp, St. Louis, MO).

in vivo = settings: female, CD-1, mouse, 0.3 mg/kg
Protocol: as §2

T1 sequence (P43220 24-463): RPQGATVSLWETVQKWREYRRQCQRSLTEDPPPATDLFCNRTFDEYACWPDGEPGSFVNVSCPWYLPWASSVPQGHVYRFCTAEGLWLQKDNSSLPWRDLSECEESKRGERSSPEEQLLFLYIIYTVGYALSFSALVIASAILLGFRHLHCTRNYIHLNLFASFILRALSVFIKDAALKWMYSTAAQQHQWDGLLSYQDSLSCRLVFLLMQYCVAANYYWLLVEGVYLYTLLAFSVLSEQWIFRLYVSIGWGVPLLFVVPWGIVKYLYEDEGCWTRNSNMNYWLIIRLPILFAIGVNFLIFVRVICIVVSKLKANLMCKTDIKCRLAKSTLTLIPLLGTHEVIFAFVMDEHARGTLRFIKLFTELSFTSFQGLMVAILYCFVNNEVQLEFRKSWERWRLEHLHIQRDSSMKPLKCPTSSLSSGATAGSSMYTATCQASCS
T2 sequence (P47871 26-477): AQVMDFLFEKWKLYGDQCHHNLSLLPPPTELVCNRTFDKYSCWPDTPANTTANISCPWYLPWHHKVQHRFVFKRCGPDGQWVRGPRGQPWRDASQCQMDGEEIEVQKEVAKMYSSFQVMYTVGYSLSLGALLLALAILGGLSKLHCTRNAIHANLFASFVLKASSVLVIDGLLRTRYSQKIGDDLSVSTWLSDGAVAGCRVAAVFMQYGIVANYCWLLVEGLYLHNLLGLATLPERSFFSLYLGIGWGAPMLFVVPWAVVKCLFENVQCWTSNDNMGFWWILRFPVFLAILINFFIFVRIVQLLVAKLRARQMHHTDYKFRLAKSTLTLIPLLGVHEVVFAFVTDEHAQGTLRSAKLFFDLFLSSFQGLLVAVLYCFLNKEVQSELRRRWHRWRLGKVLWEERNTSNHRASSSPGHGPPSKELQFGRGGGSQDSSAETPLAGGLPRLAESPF

Which results are given for CC[C@H](C)[C@@H]1NC(=O)[C@H](Cc2ccccc2)NC(=O)[C@H](CCC(=O)O)NC(=O)[C@H](CCCCN)NC(=O)[C@H](C)NC(=O)[C@H](C)NC(=O)[C@@H](NC(=O)[C@H](CCC(=O)O)NC(=O)[C@H](CC(=O)O)NC(=O)[C@H](CC(C)C)NC(=O)[C@H](Cc2ccc(O)cc2)NC(=O)[C@H](CCCCN)NC(=O)[C@H](CO)NC(=O)[C@H](Cc2ccc(O)cc2)NC(=O)[C@H](CC(=O)O)NC(=O)[C@H](CO)NC(=O)[C@@H](NC(=O)[C@H](Cc2ccccc2)NC(=O)[C@@H](NC(=O)CNC(=O)[C@H](CCC(N)=O)NC(=O)[C@@H](CO)NC(=O)[C@@H](N)Cc2c[nH]cn2)[C@@H](C)O)[C@@H](C)O)CCCCNC(=O)CCCC(=O)NCCCC[C@@H](C(=O)N[C@@H](Cc2c[nH]c3ccccc23)C(=O)N[C@@H](CC(C)C)C(=O)N[C@@H](CC(C)C)C(=O)N[C@@H](CC(N)=O)C(=O)NCC(=O)NCC(=O)N2CCC[C@H]2C(=O)N[C@@H](CO)C(=O)N[C@@H](CO)C(=O)NCC(=O)N[C@@H](C)C(=O)N2CCC[C@H]2C(=O)N2CCC[C@H]2C(=O)N2CCC[C@H]2C(=O)N[C@@H](CO)C(N)=O)NC1=O [mTA5] (H-H[dS]QGTFTSDYSKYLDEKAAKEFIKWLLNGGPSSGAPPPS-NH2; linker 17-24 via Glutaryl)?
EC50 [1]: 0.02 nM; EC50 [2]: 0.07 nM

With CCCCCCCCCCCCCC(=O)NCCOCCOCCOCCC(=O)NCCC(=O)N1CC(=O)NCCCC[C@@H](C(=O)N[C@@H](C)C(=O)N[C@@H](CCCNC(=N)N)C(=O)N[C@@H](CC(=O)O)C(=O)N[C@@H](Cc2ccccc2)C(=O)N[C@H](C(=O)N[C@@H](CC(N)=O)C(=O)N[C@@H](Cc2c[nH]c3ccccc23)C(=O)N[C@@H](CC(C)C)C(=O)N[C@H](C(=O)N[C@@H](CCC(N)=O)C(=O)N[C@H](C(=O)N[C@@H](CCCCN)C(=O)N[C@H](C(=O)N[C@H](C(=O)N[C@@H](CC(=O)O)C(N)=O)[C@@H](C)O)[C@@H](C)CC)[C@@H](C)O)[C@@H](C)CC)[C@@H](C)CC)NC(=O)[C@H](CC(C)C)NC(=O)[C@H](CC(N)=O)NC(=O)[C@H](CC(=O)O)NC(=O)[C@H](CC(C)C)NC(=O)[C@H]([C@@H](C)CC)NC(=O)[C@H]([C@@H](C)O)NC(=O)[C@@H](NC(=O)[C@H](CCSC)NC(=O)[C@H](CCC(=O)O)NC(=O)[C@H](CC(=O)O)NC(=O)[C@H](CO)NC(=O)[C@H](Cc2ccccc2)NC(=O)[C@H](CO)NC(=O)CNC(=O)[C@H](CC(=O)O)NC(=O)CNC(=O)[C@@H](N)Cc2c[nH]cn2)CCCCNC(=O)C1 [mTA7] as the compound, how does the EC50 [3] read?
The EC50 was 0.068 nM.

And the half-life ([4]; iv)?
The half-life was 3 h.

What about the half-life ([4]; sc) of the same compound?
The half-life was 4 h.

With CC[C@H](C)[C@@H]1NC(=O)[C@H](Cc2ccccc2)NC(=O)[C@H](CCC(=O)O)NC(=O)[C@H](CCCCN)NC(=O)[C@H](C)NC(=O)[C@H](C)NC(=O)[C@@H](NC(=O)[C@H](CCC(=O)O)NC(=O)[C@H](CC(=O)O)NC(=O)[C@H](CC(C)C)NC(=O)[C@H](Cc2ccc(O)cc2)NC(=O)[C@H](CCCCN)NC(=O)[C@H](CO)NC(=O)[C@H](Cc2ccc(O)cc2)NC(=O)[C@H](CC(=O)O)NC(=O)[C@H](CO)NC(=O)[C@@H](NC(=O)[C@H](Cc2ccccc2)NC(=O)[C@@H](NC(=O)CNC(=O)[C@H](CCC(N)=O)NC(=O)[C@@H](CO)NC(=O)[C@@H](N)Cc2c[nH]cn2)[C@@H](C)O)[C@@H](C)O)CCCCNC(=O)CN(C(=O)CCNC(=O)CCOCCOCCOCCNC(=O)CCCCCCCCCCCCCCCCC(=O)O)CC(=O)NCCCC[C@@H](C(=O)N[C@@H](Cc2c[nH]c3ccccc23)C(=O)N[C@@H](CC(C)C)C(=O)N[C@@H](CC(C)C)C(=O)N[C@@H](CCCNC(=N)N)C(=O)N[C@@H](C)C(N)=O)NC1=O [mTA4] as the compound, how does the EC50 [1] read?
The EC50 was 0.03 nM.

And the EC50 [2]?
The EC50 was 0.15 nM.

And the half-life (in vivo; iv)?
The half-life was 5.7 h.

And the half-life (in vivo; sc)?
Its half-life is 8 h.
